Experimental data from patent publication US20240293413A1, “COMPOUND AND METHOD FOR TREATING CHEMOTHERAPY-RELATED GASTROINTESTINAL SIDE EFFECTS” (ONQUALITY PHARMACEUTICALS CHINA LTD., priority 2021, published 2024).

Key:
Type in all cases: in vivo
[1] = tested on: diarrhea caused by a chemotherapeutic agent in Balb/c mice; assay: Examples 230-271 (Table 4): oral CDK inhibitor, relief of diarrhea caused by a chemotherapeutic agent
Method in brief: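 Balb/c mice, 10 per group (vehicle, chemotherapeutic agent, CDK inhibitor plus chemotherapeutic); CDK inhibitor dosed intragastrically before the chemotherapeutic agent by injection or gavage. Diarrhea graded daily.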

[2] = tested on: diarrhea caused by a chemotherapeutic agent in Balb/c mice; assay: Examples 382-405 (Table 7): various administration modes of the CDK inhibitor, relief of diarrhea caused by a chemotherapeutic agent
Method in brief: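 Balb/c mice (10 per group) received a CDK inhibitor by oral gavage, intraperitoneal, intramuscular or topical (shaved abdomen) dosing, followed by a chemotherapeutic agent. Vehicle and chemotherapy-only groups served as controls. Diarrhea was graded daily.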

[3] = tested on: Chemotherapeutic agent-caused diarrhea models of Balb/c mice; assay: Examples 1-229 (Table 3): oral CDK inhibitor, relief of diarrhea caused by a chemotherapeutic agent;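 also: percent of treated mice whose diarrhea grade fell below chemotherapy-group average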

`CN1CCN(c2ccc(Nc3ncc4cc5n(c4n3)C3(CCCCC3)CNC5=O)nc2)CC1` [Trilaciclib (G1T28), Trilaciclib] gave a Relative remission rate ([1]; Example 236, Doxorubicin (Dox) intravenous injection 12 mg/kg single, CDK inhibitor oral 180 mg/kg single, 1 h before, cycle 10 days) of 40%, a Relative remission rate ([1]; Example 237, Doxorubicin (Dox) intravenous injection 12 mg/kg single, CDK inhibitor oral 180 mg/kg single, 12 h before, cycle 10 days) of 60% and a Relative remission rate ([1]; Example 238, Doxorubicin (Dox) intravenous injection 12 mg/kg single, CDK inhibitor oral 180 mg/kg single, 24 h before, cycle 10 days) of 60%. It also gave a Relative remission rate ([1]; Example 239, Doxorubicin (Dox) intravenous injection 12 mg/kg single, CDK inhibitor oral 180 mg/kg single, 48 h before, cycle 10 days) of 0%, a Relative remission rate ([1]; Example 254, Cytarabine (Ara-C) intraperitoneal injection 600 mg/kg single, CDK inhibitor oral 100 mg/kg single, 0.5 h before, cycle 8 days) of 60% and a Relative remission rate ([1]; Example 255, Cytarabine (Ara-C) intraperitoneal injection 600 mg/kg single, CDK inhibitor oral 100 mg/kg single, 4 h before, cycle 8 days) of 80%. The Relative remission rate ([1]; Example 256, Cytarabine (Ara-C) intraperitoneal injection 600 mg/kg single, CDK inhibitor oral 100 mg/kg single, 8 h before, cycle 8 days) was 80%, the Relative remission rate ([1]; Example 257, Cytarabine (Ara-C) intraperitoneal injection 600 mg/kg single, CDK inhibitor oral 100 mg/kg single, 12 h before, cycle 8 days) was 60% and the Relative remission rate ([1]; Example 258, Cytarabine (Ara-C) intraperitoneal injection 600 mg/kg single, CDK inhibitor oral 100 mg/kg single, 24 h before, cycle 8 days) was 40%. The Relative remission rate ([1]; Example 259, Cytarabine (Ara-C) intraperitoneal injection 600 mg/kg single, CDK inhibitor oral 100 mg/kg single, 48 h before, cycle 8 days) was 0%, the Relative remission rate ([1]; Example 270, Vinorelbine (NVB) intramuscular injection 10 mg/kg single, CDK inhibitor oral 50 mg/kg single, 1 h before, cycle 7 days) was 50% and the “Relative remission rate of other administration mode” value ([2]; Example 395, Carboplatin (CBP) oral administration 200 mg/kg single, CDK inhibitor local administration 100 mg/kg single, 24 h before, cycle 10 days) was 20%. For the same compound, the “Relative remission rate of oral administration” value ([2]; Example 395, Carboplatin (CBP) oral administration 200 mg/kg single, CDK inhibitor oral 100 mg/kg single, 24 h before, cycle 10 days) was 60%, the “Relative remission rate of other administration mode” value ([2]; Example 402, Gemcitabine (GEM) intramuscular injection 120 mg/kg single, CDK inhibitor intramuscular injection 50 mg/kg single, 24 h before, cycle 8 days) was 10% and the “Relative remission rate of oral administration” value ([2]; Example 402, Gemcitabine (GEM) intramuscular injection 120 mg/kg single, CDK inhibitor oral 50 mg/kg single, 24 h before, cycle 8 days) was 40%. The “Relative remission rate of other administration mode” value ([2]; Example 404, Gemcitabine and carboplatin intraperitoneal injection 120 (G) 100 (C) mg/kg single, CDK inhibitor intramuscular injection 100 mg/kg single, 12 h before, cycle 8 days) was 20%, the “Relative remission rate of oral administration” value ([2]; Example 404, Gemcitabine and carboplatin intraperitoneal injection 120 (G) 100 (C) mg/kg single, CDK inhibitor oral 150 mg/kg single, 12 h before, cycle 8 days) was 60% and the “Relative remission rate of other administration mode” value ([2]; Example 405, Gemcitabine and carboplatin intraperitoneal injection 120 (G) 100 (C) mg/kg single, CDK inhibitor intramuscular injection 100 mg/kg single, 24 h before, cycle 8 days) was 10%. The “Relative remission rate of oral administration” value ([2]; Example 405, Gemcitabine and carboplatin intraperitoneal injection 120 (G) 100 (C) mg/kg single, CDK inhibitor oral 150 mg/kg single, 24 h before, cycle 8 days) was 50%, the “relief of diarrhea by oral, injection and local administration” value ([2]; diarrhea caused by docetaxel, carboplatin, gemcitabine, and gemcitabine plus carboplatin, under certain conditions, effect of oral administration most significant) was “can relieve diarrhea” and the “Relative remission rate (%)” value ([3]; Example 49, Oxaliplatin intraperitoneal injection 20 mg/kg single, CDK inhibitor oral 100 mg/kg single 0.5 h before, cycle 8 days) was 60%. The “Relative remission rate (%)” value ([3]; Example 50, Oxaliplatin intraperitoneal injection 20 mg/kg single, CDK inhibitor oral 100 mg/kg single 1 h before, cycle 8 days) was 50%, the “Relative remission rate (%)” value ([3]; Example 51, Oxaliplatin intraperitoneal injection 20 mg/kg single, CDK inhibitor oral 100 mg/kg single 2 h before, cycle 8 days) was 40% and the “Relative remission rate (%)” value ([3]; Example 52, Oxaliplatin intraperitoneal injection 20 mg/kg single, CDK inhibitor oral 100 mg/kg single 3 h before, cycle 8 days) was 60%. For the same compound, the “Relative remission rate (%)” value ([3]; Example 53, Oxaliplatin intraperitoneal injection 20 mg/kg single, CDK inhibitor oral 100 mg/kg single 4 h before, cycle 8 days) was 50%, the “Relative remission rate (%)” value ([3]; Example 54, Oxaliplatin intraperitoneal injection 20 mg/kg single, CDK inhibitor oral 100 mg/kg single 5 h before, cycle 8 days) was 30% and the “Relative remission rate (%)” value ([3]; Example 55, Oxaliplatin intraperitoneal injection 20 mg/kg single, CDK inhibitor oral 100 mg/kg single 6 h before, cycle 8 days) was 80%. For the same compound, the “Relative remission rate (%)” value ([3]; Example 56, Oxaliplatin intraperitoneal injection 20 mg/kg single, CDK inhibitor oral 100 mg/kg single 7 h before, cycle 8 days) was 60%, the “Relative remission rate (%)” value ([3]; Example 57, Oxaliplatin intraperitoneal injection 20 mg/kg single, CDK inhibitor oral 100 mg/kg single 8 h before, cycle 8 days) was 60% and the “Relative remission rate (%)” value ([3]; Example 58, Oxaliplatin intraperitoneal injection 20 mg/kg single, CDK inhibitor oral 100 mg/kg single 9 h before, cycle 8 days) was 80%. The “Relative remission rate (%)” value ([3]; Example 59, Oxaliplatin intraperitoneal injection 20 mg/kg single, CDK inhibitor oral 100 mg/kg single 10 h before, cycle 8 days) was 70%, the “Relative remission rate (%)” value ([3]; Example 60, Oxaliplatin intraperitoneal injection 20 mg/kg single, CDK inhibitor oral 100 mg/kg single 11 h before, cycle 8 days) was 70% and the “Relative remission rate (%)” value ([3]; Example 61, Oxaliplatin intraperitoneal injection 20 mg/kg single, CDK inhibitor oral 100 mg/kg single 12 h before, cycle 8 days) was 50%. For the same compound, the “Relative remission rate (%)” value ([3]; Example 62, Oxaliplatin intraperitoneal injection 20 mg/kg single, CDK inhibitor oral 100 mg/kg single 14 h before, cycle 8 days) was 60%, the “Relative remission rate (%)” value ([3]; Example 63, Oxaliplatin intraperitoneal injection 20 mg/kg single, CDK inhibitor oral 100 mg/kg single 16 h before, cycle 8 days) was 80% and the “Relative remission rate (%)” value ([3]; Example 64, Oxaliplatin intraperitoneal injection 20 mg/kg single, CDK inhibitor oral 100 mg/kg single 18 h before, cycle 8 days) was 80%. The “Relative remission rate (%)” value ([3]; Example 65, Oxaliplatin intraperitoneal injection 20 mg/kg single, CDK inhibitor oral 100 mg/kg single 20 h before, cycle 8 days) was 70%, the “Relative remission rate (%)” value ([3]; Example 66, Oxaliplatin intraperitoneal injection 20 mg/kg single, CDK inhibitor oral 100 mg/kg single 22 h before, cycle 8 days) was 50% and the “Relative remission rate (%)” value ([3]; Example 67, Oxaliplatin intraperitoneal injection 20 mg/kg single, CDK inhibitor oral 100 mg/kg single 24 h before, cycle 8 days) was 50%. The “Relative remission rate (%)” value ([3]; Example 68, Oxaliplatin intraperitoneal injection 20 mg/kg single, CDK inhibitor oral 100 mg/kg single 48 h before, cycle 8 days) was 0%, the “Relative remission rate (%)” value ([3]; Example 127, Irinotecan (CPT-11) intramuscular injection 240 mg/kg single, CDK inhibitor oral 50 mg/kg single 1 h before, cycle 7 days) was 70% and the “Relative remission rate (%)” value ([3]; Example 170, Gemcitabine (GEM) intraperitoneal injection 120 mg/kg single, CDK inhibitor oral 60 mg/kg single 0.5 h before, cycle 8 days) was 50%. The “Relative remission rate (%)” value ([3]; Example 171, Gemcitabine (GEM) intraperitoneal injection 120 mg/kg single, CDK inhibitor oral 60 mg/kg single 1 h before, cycle 8 days) was 50%, the “Relative remission rate (%)” value ([3]; Example 172, Gemcitabine (GEM) intraperitoneal injection 120 mg/kg single, CDK inhibitor oral 60 mg/kg single 2 h before, cycle 8 days) was 40% and the “Relative remission rate (%)” value ([3]; Example 173, Gemcitabine (GEM) intraperitoneal injection 120 mg/kg single, CDK inhibitor oral 60 mg/kg single 4 h before, cycle 8 days) was 60%. For the same compound, the “Relative remission rate (%)” value ([3]; Example 174, Gemcitabine (GEM) intraperitoneal injection 120 mg/kg single, CDK inhibitor oral 60 mg/kg single 6 h before, cycle 8 days) was 50%, the “Relative remission rate (%)” value ([3]; Example 175, Gemcitabine (GEM) intraperitoneal injection 120 mg/kg single, CDK inhibitor oral 60 mg/kg single 8 h before, cycle 8 days) was 50% and the “Relative remission rate (%)” value ([3]; Example 176, Gemcitabine (GEM) intraperitoneal injection 120 mg/kg single, CDK inhibitor oral 60 mg/kg single 10 h before, cycle 8 days) was 50%. For the same compound, the “Relative remission rate (%)” value ([3]; Example 177, Gemcitabine (GEM) intraperitoneal injection 120 mg/kg single, CDK inhibitor oral 60 mg/kg single 12 h before, cycle 8 days) was 40%, the “Relative remission rate (%)” value ([3]; Example 178, Gemcitabine (GEM) intraperitoneal injection 120 mg/kg single, CDK inhibitor oral 60 mg/kg single 14 h before, cycle 8 days) was 60% and the “Relative remission rate (%)” value ([3]; Example 193, Gemcitabine (GEM) oral administration 300 mg/kg single, CDK inhibitor oral 200 mg/kg single, 2 h before, 8 days) was 60%. The “Relative remission rate (%)” value ([3]; Example 227, Topotecan intravenous injection 20 mg/kg single, CDK inhibitor oral 100 mg/kg single, 0.5 h before, 14 days) was 70%.
